# Data taken from patent US11001590B2, “Pyrazolopyrimidine derivatives” (BAYER ANIMAL HEALTH GMBH, priority 2016, dated 2021).
# Legend:
# [1] = log P by HPLC on reversed phase columns (Method L0; [a] acidic, [b] neutral range); conditions: for log P: HPLC on reversed phase columns (Method L0); for logP (Method L0) [a]: HPLC on reversed phase columns, Method L0, [a] acidic range
# Description: Calibration was done with straight-chain alkan-2-ones (with 3 to 16 carbon atoms) with known log P values (measurement of log P values using retention times with linear interpolation between successive alkanones). Lambda-max-values were determined using UV-spectra from 200 nm to 400 nm and the peak values of the chromatographic signals.
# C. elegans Slo-1a = C. elegans Slo-1a (Caenorhabditis elegans, UniProt Q95V25); assay: In vitro assay 1: C. elegans Slo-1a, action at a recombinant C. elegans CHO cell line (membrane potential measurement); conditions: for pE50: CHO cells expressing C. elegans Slo-1a, voltage sensitive dye, FLIPR Tetra, negative decadic logarithm of EC50
# [2] = last column of Table 1, column head not shown
# Sequence of C. elegans Slo-1a (Q95V25 whole entry): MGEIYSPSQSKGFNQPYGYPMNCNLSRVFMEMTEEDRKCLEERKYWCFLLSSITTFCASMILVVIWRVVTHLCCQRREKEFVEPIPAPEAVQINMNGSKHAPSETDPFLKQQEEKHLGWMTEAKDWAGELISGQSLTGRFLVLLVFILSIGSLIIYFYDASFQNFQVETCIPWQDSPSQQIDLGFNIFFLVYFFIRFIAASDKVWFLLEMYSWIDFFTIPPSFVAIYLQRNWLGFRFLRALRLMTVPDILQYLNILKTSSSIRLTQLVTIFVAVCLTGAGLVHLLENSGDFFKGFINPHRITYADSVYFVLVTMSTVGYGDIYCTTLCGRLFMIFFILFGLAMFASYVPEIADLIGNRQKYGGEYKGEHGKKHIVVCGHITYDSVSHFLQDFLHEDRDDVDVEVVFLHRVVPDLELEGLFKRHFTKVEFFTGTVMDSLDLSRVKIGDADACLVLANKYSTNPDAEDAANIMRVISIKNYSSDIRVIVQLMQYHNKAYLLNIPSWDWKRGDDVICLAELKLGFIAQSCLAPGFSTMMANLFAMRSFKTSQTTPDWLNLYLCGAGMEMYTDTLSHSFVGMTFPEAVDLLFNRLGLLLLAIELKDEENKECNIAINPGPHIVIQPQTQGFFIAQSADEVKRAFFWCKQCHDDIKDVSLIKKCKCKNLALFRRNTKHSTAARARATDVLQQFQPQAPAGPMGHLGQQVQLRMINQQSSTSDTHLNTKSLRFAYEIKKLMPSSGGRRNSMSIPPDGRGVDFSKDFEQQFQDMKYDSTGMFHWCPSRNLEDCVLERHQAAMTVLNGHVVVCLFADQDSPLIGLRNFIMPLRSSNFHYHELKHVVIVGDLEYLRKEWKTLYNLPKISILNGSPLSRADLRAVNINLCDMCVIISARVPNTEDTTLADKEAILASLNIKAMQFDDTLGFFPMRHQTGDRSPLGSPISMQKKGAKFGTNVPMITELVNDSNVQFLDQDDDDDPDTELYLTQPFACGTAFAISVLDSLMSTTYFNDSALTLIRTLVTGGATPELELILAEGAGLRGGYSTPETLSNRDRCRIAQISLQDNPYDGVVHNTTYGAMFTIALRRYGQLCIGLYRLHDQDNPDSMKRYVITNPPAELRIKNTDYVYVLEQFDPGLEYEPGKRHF
smiles,measurement,setting,value
Cc1nn2c(N(C)CC[S+](C)[O-])c(C(=O)NC3CCOc4ccccc43)cnc2c1-c1cc(Cl)cc(Cl)c1 (mixture of isomers) [Example 540],log P,[1]; [2],2.88
same,pE50,C. elegans Slo-1a,7.7
Cc1ccc2c(c1)C(NC(=O)c1cnc3c(-c4c(F)cccc4Cl)c(C)nn3c1C(C)C)CCO2 (racemic) [Example 237],log P,[1],4.67
same,pE50,C. elegans Slo-1a,7.5
Cc1nn2c(C(C)C)c(C(=O)NC3CCOc4ccc(F)cc43)cnc2c1-c1c(F)cccc1Cl (racemic) [Example 254],log P,[1],4.45
same,pE50,C. elegans Slo-1a,8.1
Cc1nn2c(C(C)C)c(C(=O)NC3CCc4ccccc43)cnc2c1-c1cccc(C(F)(F)F)c1 (stereo not shown) [Example 1],chromatographic logP,[1],5.29
same,EC50,C. elegans Slo-1a,39.8 nM
Cc1nn2c(C(C)C)c(C(=O)NC3CCCc4ccccc43)cnc2c1-c1cccc(C(F)(F)F)c1 (stereo not shown) [Example 2],chromatographic logP,[1],5.59
same,EC50,C. elegans Slo-1a,31.6 nM
Cc1ccc2c(c1)[C@@H](NC(=O)c1cnc3c(-c4cccc(C(F)(F)F)c4)c(C)nn3c1C(C)C)CCC2 [Example 5],logP (Method L0) [a],[1],5.99
same,pE50,C. elegans Slo-1a,7.2
Cc1nn2c(C(C)C)c(C(=O)N[C@H]3CCCc4ccccc43)cnc2c1-c1cc(Cl)cc(Cl)c1 [Example 7],chromatographic logP,[1],6.39
same,EC50,C. elegans Slo-1a,20 nM
Cc1nn2c(C)c(C(=O)N[C@H]3CCCc4ccccc43)cnc2c1-c1cccc(Cl)c1 [Example 46],chromatographic logP,[1],4.42
same,EC50,C. elegans Slo-1a,251 nM
CC(C)c1c(C(=O)N[C@H]2CCc3ccccc32)cnc2c(-c3cccc(Cl)c3)c(C(F)(F)F)nn12 [Example 48],chromatographic logP,[1],5.46
same,EC50,C. elegans Slo-1a,251 nM
CC(C)c1c(C(=O)N[C@H]2CCCc3ccccc32)cnc2c(-c3cccc(C(F)(F)F)c3)c(C(F)(F)F)nn12 [Example 56],chromatographic logP,[1],5.8
same,EC50,C. elegans Slo-1a,398 nM
Cc1nn2c(C)c(C(=O)N[C@H]3CCc4ccccc43)cnc2c1-c1cccc(Cl)c1 [Example 59],chromatographic logP,[1],4.12
same,EC50,C. elegans Slo-1a,79.4 nM
Cc1nn2c(C)c(C(=O)N[C@H]3CCc4ccccc43)cnc2c1-c1cc(Cl)cc(Cl)c1 [Example 60],chromatographic logP,[1],4.96
same,EC50,C. elegans Slo-1a,7940 nM
Cc1nn2c(C)c(C(=O)N[C@H]3CCCc4ccccc43)cnc2c1-c1cc(Cl)cc(Cl)c1 [Example 61],chromatographic logP,[1],5.29
same,EC50,C. elegans Slo-1a,6310 nM
Cc1nn2cc(C(=O)N[C@H]3CCc4ccccc43)cnc2c1-c1ccccc1Cl [Example 62],chromatographic logP,[1],3.52
same,EC50,C. elegans Slo-1a,2000 nM
CC(C)c1c(C(=O)N[C@H]2CCc3ccccc32)cnc2c(-c3cccc(C(F)(F)F)c3)c(Cl)nn12 [Example 70],chromatographic logP,[1],5.55
same,EC50,C. elegans Slo-1a,31.6 nM
CC(C)c1c(C(=O)N[C@H]2CCCc3ccccc32)cnc2c(-c3cccc(C(F)(F)F)c3)c(Cl)nn12 [Example 72],chromatographic logP,[1],5.85
same,EC50,C. elegans Slo-1a,79.4 nM
CC(C)c1c(C(=O)N[C@H]2CCc3ccccc32)cnc2c(-c3ccc(Cl)cc3)c(Cl)nn12 [Example 73],chromatographic logP,[1],5.47
same,EC50,C. elegans Slo-1a,158 nM
Cc1c(C(=O)N[C@H]2CCc3ccccc32)cnc2c(-c3ccccc3Cl)c(C(F)(F)F)nn12 [Example 81],chromatographic logP,[1],4.24
same,EC50,C. elegans Slo-1a,398 nM
CC(C)c1c(C(=O)N[C@H]2CCc3ccccc32)cnc2c(-c3ccccc3Cl)c(C(F)(F)F)nn12 [Example 88],chromatographic logP,[1],4.96
same,EC50,C. elegans Slo-1a,79.4 nM
CC(C)c1c(C(=O)N[C@H]2CCCc3ccccc32)cnc2c(-c3ccccc3Cl)c(C(F)(F)F)nn12 [Example 89],chromatographic logP,[1],5.24
same,EC50,C. elegans Slo-1a,631 nM
CC(C)c1c(C(=O)N[C@H]2CCc3ccccc32)cnc2c(-c3cccc(C(F)(F)F)c3)c(C(F)(F)F)nn12 [Example 91],chromatographic logP,[1],5.51
same,EC50,C. elegans Slo-1a,63.1 nM
Cc1nn2c(C(C)C)c(C(=O)N[C@H]3CCOc4ccc(Cl)cc43)cnc2c1-c1ccccc1F [Example 93],logP (Method L0) [a],[1],4.67
same,pE50,C. elegans Slo-1a,7
Cc1nn2c(C(C)C)c(C(=O)N[C@H]3CCOc4ccc(Cl)cc43)cnc2c1-c1c(F)cccc1F [Example 97],logP (Method L0) [a],[1],4.61
same,pE50,C. elegans Slo-1a,7.2
Cc1nn2c(C(C)C)c(C(=O)N[C@H]3CCOc4ccc(Cl)cc43)cnc2c1-c1ccc(F)c(F)c1 [Example 101],logP (Method L0) [a],[1],5.03
same,pE50,C. elegans Slo-1a,6.6
Cc1nn2c(C(C)C)c(C(=O)N[C@H]3CCOc4ccc(Cl)cc43)cnc2c1-c1ccccc1Cl [Example 104],logP (Method L0) [a],[1],4.87
same,pE50,C. elegans Slo-1a,7
Cc1nn2c(C(C)C)c(C(=O)N[C@H]3CCOc4ccc(Cl)cc43)cnc2c1-c1cccc(Cl)c1 [Example 105],logP (Method L0) [a],[1],5.36
same,pE50,C. elegans Slo-1a,6.8
Cc1ccc2c(c1)[C@@H](NC(=O)c1cnc3c(-c4c(F)cccc4F)c(C)nn3c1C(C)C)CCC2 [Example 108],logP (Method L0) [a],[1],5.09
same,pE50,C. elegans Slo-1a,7.3
Cc1ccc2c(c1)[C@@H](NC(=O)c1cnc3c(-c4ccccc4F)c(C)nn3c1C(C)C)CCC2 [Example 110],logP (Method L0) [a],[1],5.16
same,pE50,C. elegans Slo-1a,6.7
Cc1ccc2c(c1)[C@@H](NC(=O)c1cnc3c(-c4ccccc4Cl)c(C)nn3c1C(C)C)CCC2 [Example 111],logP (Method L0) [a],[1],5.37
same,pE50,C. elegans Slo-1a,7.2
Cc1nn2c(C(C)C)c(C(=O)N[C@H]3CCOc4ccc(Cl)cc43)cnc2c1-c1cc(F)ccc1F [Example 114],logP (Method L0) [a],[1],4.82
same,pE50,C. elegans Slo-1a,6.9
Cc1nn2c(C(C)C)c(C(=O)N[C@H]3CCCc4ccccc43)cnc2c1-c1ccc(Cl)c(C(=O)NC2CC2)c1 [Example 119],logP (Method L0) [a],[1],4.07
same,pE50,C. elegans Slo-1a,5.5
Cc1nn2c(C(C)C)c(C(=O)N[C@H]3CCc4ccccc43)cnc2c1-c1ccc2c(c1)OC(F)(F)O2 [Example 123],chromatographic logP,[1],5.25
same,EC50,C. elegans Slo-1a,10 nM
Cc1nn2c(C(C)C)c(C(=O)N[C@H]3CCCc4ccccc43)cnc2c1-c1cc(Cl)cc(C(F)(F)F)c1 [Example 124],chromatographic logP,[1],6.36
same,EC50,C. elegans Slo-1a,7.94 nM
Cc1nn2c(C(C)C)c(C(=O)N[C@H]3CCCc4ccccc43)cnc2c1-c1ccc(C(C)C)cc1 [Example 126],chromatographic logP,[1],6.01
same,EC50,C. elegans Slo-1a,200 nM
CC(C)c1c(C(=O)N[C@H]2CCc3ccccc32)cnc2c(-c3cc(Cl)cc(Cl)c3)c(C(F)(F)F)nn12 [Example 167],chromatographic logP,[1],6.06
same,EC50,C. elegans Slo-1a,39.8 nM
Cc1nn2c(C(C)C)c(C(=O)N[C@H]3CCOc4ccccc43)cnc2c1-c1ccc(C(F)(F)F)c(F)c1 [Example 187],logP (Method L0) [a],[1],4.85
same,pE50,C. elegans Slo-1a,7.9
Cc1nn2c(C(C)C)c(C(=O)N[C@H]3CCOc4ccccc43)cnc2c1-c1cccc(OC(F)(F)F)c1F [Example 215],log P,[1],5.02
same,pE50,C. elegans Slo-1a,9.1
COc1c(Cl)ccc(-c2c(C)nn3c(C(C)C)c(C(=O)N[C@H]4CCOc5ccccc54)cnc23)c1F [Example 216],log P,[1],4.74
same,pE50,C. elegans Slo-1a,9.1
COc1c(C(=O)N[C@H]2CCOc3ccccc32)cnc2c(-c3c(F)cccc3Cl)c(C)nn12 [Example 514],log P,[1]; [2],4.93
COc1c(C(=O)N[C@H]2CCOc3ccccc32)cnc2c(-c3cc(Cl)cc(Cl)c3F)c(C)nn12 [Example 515],log P,[1]; [2],3.17
COc1c(C(=O)N[C@H]2CCOc3ccccc32)cnc2c(-c3ccc(F)c(F)c3)c(C)nn12 [Example 519],log P,[1]; [2],2.88
COc1c(C(=O)N[C@H]2CCOc3ccccc32)cnc2c(-c3cc(Cl)cc(Cl)c3)c(C)nn12 [Example 521],log P,[1]; [2],3.56
Cc1nn2c(C3CC3)c(C(=O)N[C@H]3CCOc4ccccc43)cnc2c1-c1ccnc(N2CCOCC2)c1 [Example 526],log P,[1]; [2],1.53
Cc1nn2c(C(C)C)c(C(=O)N[C@H]3CCc4ccccc43)cnc2c1-c1ccc(C#N)cc1 [Examples 301],log P,[1],4.28
Cc1nn2c(C(C)C)c(C(=O)N[C@H]3CCc4ccccc43)cnc2c1-c1cn[nH]c1 [Examples 307],log P,[1],2.75
CC(=O)Nc1ccc(-c2c(C)nn3c(C(C)C)c(C(=O)N[C@H]4CCc5ccccc54)cnc23)cc1 [Examples 327],log P,[1],3.24
Cc1nn2c(C(C)C)c(C(=O)N[C@H]3CCc4ccccc43)cnc2c1-c1ccc(NS(C)(=O)=O)cc1 [Examples 330],log P,[1],3.38
Cc1nn2c(C(C)C)c(C(=O)N[C@H]3CCc4ccccc43)cnc2c1-c1ccc(OCC(F)(F)F)cc1 [Examples 336],log P,[1],4.91
COCc1cccc(-c2c(C)nn3c(C(F)(F)F)c(C(=O)N[C@H]4CCc5ccccc54)cnc23)c1 [Examples 371],log P,[1],4.32
Cc1nn2c(C(F)(F)F)c(C(=O)N[C@H]3CCc4ccccc43)cnc2c1-c1cccc(Cl)c1 [Examples 382],log P,[1],4.97
Cc1nn2c(C(F)(F)F)c(C(=O)N[C@H]3CCc4ccccc43)cnc2c1-c1cccc(OC(F)(F)F)c1 [Examples 383],log P,[1],5.21
Cc1nn2c(C(F)(F)F)c(C(=O)N[C@H]3CCc4ccccc43)cnc2c1-c1cccc(C(F)(F)F)c1 [Examples 384],log P,[1],5.04
Cc1nn2c(C(F)(F)F)c(C(=O)N[C@H]3CCc4ccccc43)cnc2c1-c1cccc(N(C)C)c1 [Examples 385],log P,[1],4.1
COc1cccc(-c2c(C)nn3c(C(F)(F)F)c(C(=O)N[C@H]4CCc5ccccc54)cnc23)c1 [Examples 386],log P,[1],4.34
Cc1nn2c(C(F)(F)F)c(C(=O)N[C@H]3CCc4ccccc43)cnc2c1-c1cccc(F)c1 [Examples 387],log P,[1],4.53
Cc1nn2c(C(C)C)c(C(=O)N[C@H]3CCc4ccccc43)cnc2c1-c1cnn(CCN2CCOCC2)c1 [Examples 397],log P,[1]; [2],1.81
Cc1nn2c(C(C)C)c(C(=O)N[C@H]3CCc4ccccc43)cnc2c1-c1cnn(CCN(C)C)c1 [Examples 404],log P,[1]; [2],1.75
CC(C)c1c(C(=O)N[C@H]2CCc3ccccc32)cnc2c(-c3cccc(OC(F)(F)F)c3)c(C3CC3)nn12 [Examples 406],log P,[1]; [2],6.11
COCc1cccc(-c2c(C3CC3)nn3c(C(C)C)c(C(=O)N[C@H]4CCc5ccccc54)cnc23)c1 [Examples 409],log P,[1]; [2],5.13
